The text below walks through data of patent publication US20120101099A1, “HISTONE DEACETYLASE INHIBITORS” (ANTHEM BIOSCIENCES PRIVATE LIMITED, priority 2009, published 2012).

Data set [1] concerns the target T1, CYP 3A4 (Homo sapiens, UniProt P08684).
T1 construct: purchased
The experiment in a line: Cytochrome-P450 isoforms liability determination. The data set is classed as in vitro ADME. Particulars: fluorescence based kit. Here is the method: To determine the test compound liability towards Human cytochrome 450 (hCYP450) Isoforms fluorescence based screening kits.
Brief procedure: 2× test compounds were prepared by dilution with deionized water. A serial dilution of the test compound was done. 2× solution of known inhibitor were used as a positive control. 40 μL of the 2× solution that is prepared was added to the desired wells. Two replicates were included for every compound. 50 μL of the Master premix (premix of CYP450 Baclosomes, reagents and regenerating system) was dispensed into each well. The plate was incubated for 20 min at room temperature to allow the compounds to interact with the CYP450enzymes. The reaction was started by adding 10 μL of the substrate and NADP^+ mixture. The plate was incubated for the desired amount of time, and then 10 μL of stop reagent was added to each well to quench the reaction. The fluorescence was measured in the fluorescent plate reader at excitation and emission wavelengths as recommended, depending on the substrate used.

For data set [2], the system named is P21. The experiment in a line: p21 induction in HeLa cells (Western Blot). The data set is classed as cell-based. On the set-up: key: represented by the symbol ‘+’ which indicates the relative extent of modulation; ++: represented by the symbol ‘+’ which indicates the relative extent of modulation; +++: represented by the symbol ‘+’ which indicates the relative extent of modulation; ++++: represented by the symbol ‘+’ which indicates the relative extent of modulation. To be noted: 24 hrs, 0.03-3.0 μM. Here is the method: HeLa Cells were seeded at a density of 0.5×10^6 Cells/well into 6 well plates and incubated for 24 hrs. Compounds were tested at 5 different concentrations (0.03, 0.1, 0.3, 1.0, 3.0 μM) including corresponding controls. After 24 hrs cells were lysed and the cellular extract was used for measuring P21 induction by Western Blot using monoclonal Anti-p21 clone CP74 antibody (Sigma).

Data set [3] has as its system NCI-H460. As to the kind of experiment: Cell proliferation assay (MTT). Particulars: Homo sapiens. In kind it is cell-based. The method, boiled down: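 MTT read-out, A570 after 3 h dye incubation and DMSO solubilisation. Percentage growth vs T0 plate measured at time of dosing; GI50 interpolated from growth curves.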
Data set [4] relates to Caspase-3. The experiment in a line: Caspase-3 activity in HT-29 cells. In kind it is cell-based. To be noted: Homo sapiens, 48 hours. On the procedure:
Caspase-3 activity was measured in HT-29 cells using Caspase-3 assay kit, (Sigma). HT-29 cells were seeded (10,000 cells/well) in a 96 well plate and incubated overnight. Cells were treated with several concentrations (30, 10, 3, 1, 0.3, 0.1, 0.03, 0.01 μM) of the compounds and incubated for 48 hours and the cells were lysed. Assay was carried out according to the manufacturer's protocol. The fluorescent substrate was added in to the cell lysate and the fluorescence was measured at λexi360 and λemi460.

Data set [5] deals with SK-OV-3. As to the kind of experiment: Anti-proliferative activity (GI50). The data set is classed as cell-based. Particulars: Homo sapiens, Table 9, Ovary. Here is the method: (§1) Cells were seeded in a 96-well cell culture plates at a concentration of 10,000 cells per well and incubated at 37° C. in CO2 incubator.
(§2) Twenty-four hours later cells were treated with different concentrations (100, 10, 1, 0.1, and 0.01 μM) of compound dissolved in DMSO and incubated for 48 hours. For To measurement, 24 hours after seeding the cells, 20 μL of 3-(4.5-dimethyl-2- thiazolyl)-2,5-diphenyl-2H-tetrazolium (MTT) solution per well was added to the T0 plate and incubated for 3 hours at 37° C. in a CO2 incubator.
(§3) The plate containing cells and test compounds was treated similarly after 48 hours of incubation. After 3 hours of MTT addition, well contents were aspirated carefully followed by addition of 100 μL DMSO per well. Plates were agitated to ensure dissolution of the formazan crystals in DMSO and absorbance was read at 570 nm (A570). […] From the percentage growths a dose response curve was generated and GI50 values were interpolated from the growth curves.

The subject of data set [6] is 786-O. The experiment in a line: Anti-proliferative activity (GI50). The data set is classed as cell-based. To be noted: Homo sapiens, 786-0; Table 9; Renal. On the procedure: as §1, §2, §3
The subject of data set [7] is Hela-229. As to the kind of experiment: Anti-proliferative activity (GI50). In kind it is cell-based. To be noted: Homo sapiens, Table 9, Cervix. Here is the method: as §1, §2, §3
Data set [8] has as its system NCI-H23. The experiment in a line: Anti-proliferative activity (GI50). The data set is classed as cell-based. Particulars: Homo sapiens, Table 9, Lung. On the procedure: as §1, §2, §3
Data set [9] relates to human HDAC (Hela cells nuclear extract). As to the kind of experiment: HDAC activity screening, Hela nuclear extract, Boc-Lys(Ac)-AMC substrate. In kind it is biochemical. To be noted: for HDAC % Inhibition (1 μM): 1 μM compound; for HDAC % Inhibition (10 μM): 10 μM compound. On the procedure: To study the human HDAC inhibition the in-house 96 well plate assay have been established using fluorescent substrate (Boc-Lys (Ac)-AMC Substrate). Hela cells nuclear extract have been used as enzyme source.
Assay was performed in 96-well black microplate and total volume of the assay was 100 μL. Hela nuclear extract was diluted HDAC assay buffer (final concentration of 3.0 μg/mL). Enzyme mixture was made of 10 μL of diluted enzyme and 30 μL of HDAC buffer. 40 μl of enzyme mixture followed by 10 μL of test compound (final concentration from 0.01 to 10 μM) or vehicle (control) was added to each well. The plate was pre-incubated at 37° C. for 10 minutes. The HDAC reaction was started by adding 50 μl of HDAC substrate Boc-Lys (Ac)-AMC (Anaspec, Inc Fremont, Calif., USA). The plate was incubated at 37° C. for 45 minutes. The reaction was stopped by adding 50 μL of Trypsin stop solution and plate further incubated at 37° C. for 15 minutes. Measuring the fluorescence at excitation wavelength of 360 nm and emission wavelength of 460 nm monitored the release of AMC. Buffer alone and substrate alone served as blank.

Data set [10] is described as follows: Absolute aqueous solubility. In kind it is physicochemical. Particulars: 25 °C, thermodynamic from solid; water, about 6 hrs equilibration, 25 deg centigrade, UV. Here is the method:
The objective of the study was to determine the absolute solubility of the powder form of the test compounds in water. Brief procedure: The powder form of test compounds was allowed to saturate in an aqueous medium and is equilibrated for about 6 hrs until the compound precipitates. The precipitated solution was centrifuged at 15,000 rpm for 10 mins at 25 deg centigrade and the supernatant solution was analyzed by UV spectrometry. If required the supernatant was diluted further until the absorbance by UV spectroscopy was within the limits of the standard curve obtained with the test compound. λmax was selected from UV spectra having maximum absorbance for that compound.

Data set [11] concerns HL-60 (AML) cells. As to the kind of experiment: Differentiation assay. The data set is classed as cell-based. To be noted: Homo sapiens, 72 h; HL-60 cells, 3 days, H2 DCF-DA oxidation. On the procedure:
HL-60 (AML) cells were seeded (5×10^4 cells/well) into a 96 well plate and after 24 hrs cells were treated for 3 days with compounds in 8 different concentration (3000, 1000, 300, 100, 30, 10, 3, 1 nM) including control and 60 μM of H2 DCF-DA probe added to the cells. After 2 hours incubation oxidation of H2 DCF-DA was measured.

Setting [12] is: Table 9, Lung, read-out: Anti-proliferative activity (GI50) NCI-H460.
The mark [13] stands for this setting: read-out: IC50 (50% HDAC inhibitory concentration), Table 2, Hela nuclear extract.
Setting [14] is: Table 1, MTT, 48 hours, read-out: Cell growth inhibition (GI50 in μM) NCI H460.

In brackets after ≈: the same amount, converted by molar mass. Counter-ions that a name gives are not always drawn. Like-named read-outs stand apart in the source and are kept apart here.

T1 sequence (P08684 whole entry): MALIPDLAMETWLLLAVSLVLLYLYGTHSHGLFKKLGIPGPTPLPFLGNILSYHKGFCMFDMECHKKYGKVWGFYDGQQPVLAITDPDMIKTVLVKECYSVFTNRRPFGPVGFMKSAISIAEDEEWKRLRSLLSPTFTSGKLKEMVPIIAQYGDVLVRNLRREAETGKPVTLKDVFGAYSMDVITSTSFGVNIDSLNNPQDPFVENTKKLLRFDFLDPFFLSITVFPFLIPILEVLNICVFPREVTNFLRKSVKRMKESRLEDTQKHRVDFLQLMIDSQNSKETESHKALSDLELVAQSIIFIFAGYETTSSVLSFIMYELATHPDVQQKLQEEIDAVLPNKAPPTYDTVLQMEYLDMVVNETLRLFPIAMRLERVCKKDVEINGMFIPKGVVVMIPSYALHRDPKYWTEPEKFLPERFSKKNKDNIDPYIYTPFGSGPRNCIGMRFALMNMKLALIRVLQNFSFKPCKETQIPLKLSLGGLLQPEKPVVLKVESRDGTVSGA

On to `O=C(NO)c1ccc(Cn2cc(-c3ccc(CN4CCOCC4)cc3)nn2)cc1` [Example 9, N-Hydroxy-4-[4-(4-morpholin-4-ylmethyl-phenyl)-[1,2,3]triazol-1-ylmethyl]-benzamide], for which the IC50 in [1] is 43.2 µM; in data set [9] (setting [13]), 57 nM. The P21 induction result in [2] is “+”. In addition, the GI50 in data set [3] (setting [12]) came to 2.4 ± 0.85 µM; in [5], 1800 ± 200 nM; in data set [6], 2500 ± 1010 nM; in data set [7], 1400 ± 260 nM; in [8], 2300 ± 1140 nM. The same molecule returned an EC50 in data set [4] of 1500 nM. Moreover, in [9] (Hela nuclear extract), the “HDAC % Inhibition (1 μM)” value was 91%. In data set [9] (Hela nuclear extract), the “HDAC % Inhibition (10 μM)” value came to 99%. The concentration in solution in [10] (solubility) was 4700 µg/mL (≈ 11.9 mM).
Regarding `CN(C)Cc1ccc(-c2cn(Cc3ccc(/C=C/C(=O)NO)cc3)nn2)cc1` [Example 21], the IC50 came out at 28.5 µM in [1] and 8 nM in data set [9] (setting [13]). Also, the GI50 stood at 1.9 ± 0.74 µM in [3] (setting [12]); 1700 ± 160 nM in [5]; 2000 ± 1100 nM in data set [6]; 700 ± 470 nM in data set [7]; 500 ± 240 nM in data set [8]. Besides, the midpoint of the response in data set [4], the EC50, lay at 4090 nM. The “HDAC % Inhibition (1 μM)” value in [9] (Hela nuclear extract) is recorded as 98%. Also, in [9] (Hela nuclear extract), the “HDAC % Inhibition (10 μM)” value was found to be 100%. For the same molecule, the concentration in solution in data set [10] (solubility) was 11600 µg/mL (≈ 30.7 mM).
In the case of `O=C(/C=C/c1ccc(Cn2cc(-c3ccc(CN4CCCC4)cc3)nn2)cc1)NO` [Example 16, N-Hydroxy-3-{4-[4-(4-pyrrolidin-1-ylmethyl-phenyl)-[1,2,3]triazol-1-ylmethyl]-phenyl}-acrylamide], the IC50 in data set [1] amounted to 53.3 µM; in data set [9] (setting [13]), 4 nM. The P21 induction result in [2] is on record as “+”. In addition, the GI50 is 0.4 µM in [3] (setting [14]); 0.3 ± 0.04 µM in data set [3] (setting [12]); 40 ± 16 nM in data set [5]; 2650 ± 80 nM in data set [6]; 1000 ± 270 nM in [7]; 520 ± 40 nM in data set [8]. Moreover, the values for the EC50 in [4] and in data set [11] were 6590 nM and 2880 nM, respectively. The “HDAC % Inhibition (1 μM)” value in data set [9] (Hela nuclear extract) amounted to 99%. Besides, the “HDAC % Inhibition (10 μM)” value in [9] (Hela nuclear extract) worked out at 100%. This molecule gave a solubility in data set [10] of 9400 µg/mL (≈ 23.3 mM).
As to `O=C(NO)c1ccc(Cn2cc(-c3ccc(CN4CCCC4)cc3)nn2)cc1` [Example 8, N-Hydroxy-4-[4-(4-pyrrolidin-1-ylmethyl-phenyl)-[1,2,3]triazol-1-ylmethyl]-benzamide], the IC50 in [1] stood at 28.3 µM; in data set [9] (Table 8, read-out: IC50 (nM) Hela nuclear extract), 3 nM; in data set [9] (setting [13]), 3 nM. For the same molecule, in data set [2], the P21 induction result is listed as “+”. The 50% growth inhibitory concentration (GI50) is 2.1 µM in data set [3] (setting [14]); 1.9 ± 0.75 µM in data set [3] (setting [12]); 1600 ± 100 nM in data set [5]; 4100 ± 1400 nM in [6]; 1100 ± 230 nM in data set [7]; 900 ± 250 nM in [8]. In addition, the EC50 in data set [4] amounted to 1360 nM; in data set [11], 8240 nM. In [9] (Hela nuclear extract), the “HDAC % Inhibition (1 μM)” value is given as 95%. Further, in [9] (Hela nuclear extract), the “HDAC % Inhibition (10 μM)” value is recorded as 100%. In data set [10], this molecule showed a solubility of 5100 µg/mL (≈ 13.5 mM).
With `O=C(/C=C/c1cccc(Cn2cc(-c3ccc(CN4CCOCC4)cc3)nn2)c1)NO` [Example 25, N-Hydroxy-3-{3-[4-(4-morpholin-4-ylmethyl-phenyl)-[1,2,3]triazol-1-ylmethyl]-phenyl}-acrylamide hydrochloride], the IC50 in data set [1] came to 12.6 µM; in data set [9] (setting [13]), 1 nM. Besides, in data set [2], the P21 induction result was “++”. Besides, the GI50 in data set [3] (setting [14]) worked out at 0.8 µM; in [3] (setting [12]), 0.45 ± 0.28 µM; in data set [5] it was 500 ± 1200 nM; in data set [6], 1500 ± 700 nM; in data set [7], 600 ± 380 nM; in data set [8], 400 ± 90 nM. In addition, the EC50 in data set [4] came to 3620 nM; in data set [11], 3830 nM. Also, in data set [9] (Hela nuclear extract), the “HDAC % Inhibition (1 μM)” value came out at 100%. For the same molecule, the “HDAC % Inhibition (10 μM)” value in data set [9] (Hela nuclear extract) came to 101%. Also, in data set [10], the solubility was 2900 µg/mL.
As to `O=C(CCCCCCC(=O)Nc1ccccc1)NO` [SAHA, Suberoylanilide Hydroxamic Acid, reference compound], the P21 induction result in data set [2] was “+++”. In [10], this molecule yielded a solubility of 230 µg/mL (≈ 0.87 mM).

For orientation: GI50 means the concentration that inhibits growth by half. By EC50 is commonly meant the concentration giving half of the maximal effect. What is called solubility is the concentration that dissolves in the medium under given conditions.
